Experimental data as given in ChEMBL document CHEMBL4507296 (2021).

Assays:
[1] = target: D(4) dopamine receptor (Homo sapiens) (UniProt P21917); conditions: Compound concentration 10.0 uM
[2] = species: Rattus norvegicus; conditions: Compound concentration 10.0 uM
[3] = target: 5-hydroxytryptamine receptor 6 (Homo sapiens) (UniProt P50406); conditions: Compound concentration 10.0 uM
[4] = target: Alpha-1D adrenergic receptor (Homo sapiens) (UniProt P25100); conditions: Compound concentration 10.0 uM
Sequence of Alpha-1D adrenergic receptor (Homo sapiens) (P25100 whole entry): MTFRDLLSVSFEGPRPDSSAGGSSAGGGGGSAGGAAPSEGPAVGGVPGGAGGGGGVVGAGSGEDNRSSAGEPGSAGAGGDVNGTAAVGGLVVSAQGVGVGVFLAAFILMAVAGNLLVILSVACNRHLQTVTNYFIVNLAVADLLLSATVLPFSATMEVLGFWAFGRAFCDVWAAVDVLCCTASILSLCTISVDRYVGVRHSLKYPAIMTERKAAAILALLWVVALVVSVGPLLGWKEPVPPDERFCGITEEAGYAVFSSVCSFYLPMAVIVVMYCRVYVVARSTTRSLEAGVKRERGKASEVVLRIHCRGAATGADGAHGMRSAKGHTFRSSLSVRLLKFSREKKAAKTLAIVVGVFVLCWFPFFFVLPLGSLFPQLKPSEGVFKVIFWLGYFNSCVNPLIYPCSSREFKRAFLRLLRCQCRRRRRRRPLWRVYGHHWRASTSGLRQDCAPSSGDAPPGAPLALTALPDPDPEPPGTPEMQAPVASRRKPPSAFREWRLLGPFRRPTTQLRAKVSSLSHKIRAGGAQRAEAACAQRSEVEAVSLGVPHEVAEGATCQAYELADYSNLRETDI

[5] = target: Histamine H1 receptor (Homo sapiens) (UniProt P35367); conditions: Compound concentration 10.0 uM
[6] = target: 5-hydroxytryptamine receptor 2C (Homo sapiens) (UniProt P28335); conditions: Compound concentration 10.0 uM
[7] = target: Delta-type opioid receptor (Homo sapiens) (UniProt P41143); conditions: Compound concentration 10.0 uM
[8] = target: 5-hydroxytryptamine receptor 2A (Homo sapiens) (UniProt P28223); conditions: Compound concentration 10.0 uM
[9] = target: 5-hydroxytryptamine receptor 3A (Homo sapiens) (UniProt P46098); conditions: Compound concentration 10.0 uM
[10] = target: Alpha-2C adrenergic receptor (Homo sapiens) (UniProt P18825); conditions: Compound concentration 10.0 uM
Sequence of Alpha-2C adrenergic receptor (Homo sapiens) (P18825 whole entry): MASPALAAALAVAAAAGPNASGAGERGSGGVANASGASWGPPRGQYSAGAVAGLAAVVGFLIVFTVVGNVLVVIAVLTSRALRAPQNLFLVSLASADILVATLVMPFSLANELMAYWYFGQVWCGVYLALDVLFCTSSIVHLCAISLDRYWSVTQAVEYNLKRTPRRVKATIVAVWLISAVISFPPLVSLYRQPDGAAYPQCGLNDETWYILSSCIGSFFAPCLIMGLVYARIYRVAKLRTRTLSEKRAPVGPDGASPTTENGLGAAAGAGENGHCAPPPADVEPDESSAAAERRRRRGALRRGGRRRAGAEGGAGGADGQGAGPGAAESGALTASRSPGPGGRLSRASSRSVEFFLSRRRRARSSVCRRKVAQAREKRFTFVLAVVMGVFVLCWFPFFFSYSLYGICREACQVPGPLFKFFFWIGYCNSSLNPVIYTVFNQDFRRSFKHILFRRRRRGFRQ

[11] = target: Muscarinic acetylcholine receptor M5 (Homo sapiens) (UniProt P08912); conditions: Compound concentration 10.0 uM
[12] = target: 5-hydroxytryptamine receptor 2B (Homo sapiens) (UniProt P41595); conditions: Compound concentration 10.0 uM
[13] = target: Histamine H3 receptor (Homo sapiens) (UniProt Q9Y5N1); conditions: Compound concentration 10.0 uM
[14] = target: Sodium-dependent serotonin transporter (Homo sapiens) (UniProt P31645); conditions: Compound concentration 10.0 uM
Sequence of Sodium-dependent serotonin transporter (Homo sapiens) (P31645 whole entry, looked up): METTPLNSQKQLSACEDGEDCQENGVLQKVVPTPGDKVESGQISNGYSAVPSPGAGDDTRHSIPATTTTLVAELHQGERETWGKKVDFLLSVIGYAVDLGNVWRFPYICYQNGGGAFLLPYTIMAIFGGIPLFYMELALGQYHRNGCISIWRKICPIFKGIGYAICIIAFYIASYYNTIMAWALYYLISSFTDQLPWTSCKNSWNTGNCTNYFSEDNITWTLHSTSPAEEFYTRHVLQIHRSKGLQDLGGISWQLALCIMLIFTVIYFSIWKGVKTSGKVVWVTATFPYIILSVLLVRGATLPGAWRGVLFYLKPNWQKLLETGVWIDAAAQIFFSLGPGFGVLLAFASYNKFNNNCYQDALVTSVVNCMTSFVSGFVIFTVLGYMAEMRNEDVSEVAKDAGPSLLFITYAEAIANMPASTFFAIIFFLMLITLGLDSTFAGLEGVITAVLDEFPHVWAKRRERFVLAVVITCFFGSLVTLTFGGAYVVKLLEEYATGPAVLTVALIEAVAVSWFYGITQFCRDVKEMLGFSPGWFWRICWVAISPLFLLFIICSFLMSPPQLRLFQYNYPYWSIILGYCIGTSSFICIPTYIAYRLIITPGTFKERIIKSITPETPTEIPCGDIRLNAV

[15] = target: Histamine H4 receptor (Homo sapiens) (UniProt Q9H3N8); conditions: Compound concentration 10.0 uM
[16] = target: Sodium-dependent noradrenaline transporter (Homo sapiens) (UniProt P23975); conditions: Compound concentration 10.0 uM
[17] = target: Muscarinic acetylcholine receptor M2 (Homo sapiens) (UniProt P08172); conditions: Compound concentration 10.0 uM
Sequence of Muscarinic acetylcholine receptor M2 (Homo sapiens) (P08172 whole entry): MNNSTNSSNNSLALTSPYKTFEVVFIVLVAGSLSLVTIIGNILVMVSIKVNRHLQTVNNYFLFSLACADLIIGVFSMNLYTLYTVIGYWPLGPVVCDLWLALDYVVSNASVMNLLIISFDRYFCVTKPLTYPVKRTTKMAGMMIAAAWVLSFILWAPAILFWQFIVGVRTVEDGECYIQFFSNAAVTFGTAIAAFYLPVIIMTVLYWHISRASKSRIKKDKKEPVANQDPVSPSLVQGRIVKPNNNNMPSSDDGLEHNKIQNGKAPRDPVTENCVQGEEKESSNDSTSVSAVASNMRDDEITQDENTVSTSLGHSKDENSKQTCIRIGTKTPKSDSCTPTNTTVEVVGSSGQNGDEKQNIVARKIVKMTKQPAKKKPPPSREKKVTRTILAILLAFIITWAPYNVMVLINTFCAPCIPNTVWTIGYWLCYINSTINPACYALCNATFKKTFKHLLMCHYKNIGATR

[18] = target: Beta-3 adrenergic receptor (Homo sapiens) (UniProt P13945); conditions: Compound concentration 10.0 uM
[19] = target: 5-hydroxytryptamine receptor 5A (Homo sapiens) (UniProt P47898); conditions: Compound concentration 10.0 uM
[20] = target: Beta-2 adrenergic receptor (Homo sapiens) (UniProt P07550); conditions: Compound concentration 10.0 uM
Sequence of Beta-2 adrenergic receptor (Homo sapiens) (P07550 whole entry, looked up): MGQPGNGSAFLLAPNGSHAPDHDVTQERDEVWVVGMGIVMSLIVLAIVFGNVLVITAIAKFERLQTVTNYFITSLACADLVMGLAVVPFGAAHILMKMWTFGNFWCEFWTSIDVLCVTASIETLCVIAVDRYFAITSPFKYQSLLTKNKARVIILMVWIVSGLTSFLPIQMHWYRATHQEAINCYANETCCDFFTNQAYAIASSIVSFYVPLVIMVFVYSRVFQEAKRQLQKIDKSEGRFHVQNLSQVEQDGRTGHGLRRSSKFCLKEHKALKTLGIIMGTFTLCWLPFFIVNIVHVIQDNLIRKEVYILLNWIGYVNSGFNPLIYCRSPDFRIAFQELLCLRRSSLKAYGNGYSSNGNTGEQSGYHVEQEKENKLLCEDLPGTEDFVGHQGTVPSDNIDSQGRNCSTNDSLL

[21] = target: 5-hydroxytryptamine receptor 7 (Homo sapiens) (UniProt P34969); conditions: Compound concentration 10.0 uM
Sequence of 5-hydroxytryptamine receptor 7 (Homo sapiens) (P34969 whole entry): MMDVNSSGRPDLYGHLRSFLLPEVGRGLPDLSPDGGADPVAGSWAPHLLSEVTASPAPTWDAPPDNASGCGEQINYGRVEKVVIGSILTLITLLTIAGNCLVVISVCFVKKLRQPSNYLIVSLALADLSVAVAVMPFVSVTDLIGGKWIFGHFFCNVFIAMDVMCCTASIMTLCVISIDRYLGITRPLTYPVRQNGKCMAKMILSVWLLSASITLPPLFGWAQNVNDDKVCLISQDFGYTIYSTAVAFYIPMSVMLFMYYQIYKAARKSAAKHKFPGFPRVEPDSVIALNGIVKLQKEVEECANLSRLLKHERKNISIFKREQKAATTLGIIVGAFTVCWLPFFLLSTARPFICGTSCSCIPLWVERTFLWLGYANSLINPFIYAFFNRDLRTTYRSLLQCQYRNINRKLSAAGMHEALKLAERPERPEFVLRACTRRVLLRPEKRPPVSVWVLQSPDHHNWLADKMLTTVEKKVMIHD

[22] = target: Mu-type opioid receptor (Homo sapiens) (UniProt P35372); conditions: Compound concentration 10.0 uM
Sequence of Mu-type opioid receptor (Homo sapiens) (P35372 whole entry): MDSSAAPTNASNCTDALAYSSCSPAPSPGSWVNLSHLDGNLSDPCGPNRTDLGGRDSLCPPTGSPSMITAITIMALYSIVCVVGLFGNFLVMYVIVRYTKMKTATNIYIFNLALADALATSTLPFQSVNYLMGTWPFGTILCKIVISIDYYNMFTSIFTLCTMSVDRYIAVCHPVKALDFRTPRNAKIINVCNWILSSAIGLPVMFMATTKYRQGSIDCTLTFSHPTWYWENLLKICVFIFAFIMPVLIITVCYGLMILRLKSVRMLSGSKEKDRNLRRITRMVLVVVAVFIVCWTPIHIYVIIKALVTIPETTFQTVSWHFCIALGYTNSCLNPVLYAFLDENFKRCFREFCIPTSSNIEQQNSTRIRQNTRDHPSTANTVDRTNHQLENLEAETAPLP

[23] = target: Beta-1 adrenergic receptor (Homo sapiens) (UniProt P08588); conditions: Compound concentration 10.0 uM
[24] = target: Muscarinic acetylcholine receptor M1 (Homo sapiens) (UniProt P11229); conditions: Compound concentration 10.0 uM
[25] = target: Muscarinic acetylcholine receptor M3 (Homo sapiens) (UniProt P20309); conditions: Compound concentration 10.0 uM
[26] = target: 5-hydroxytryptamine receptor 1B (Homo sapiens) (UniProt P28222); conditions: Compound concentration 10.0 uM
[27] = target: 5-hydroxytryptamine receptor 1A (Homo sapiens) (UniProt P08908); conditions: Compound concentration 10.0 uM
Sequence of 5-hydroxytryptamine receptor 1A (Homo sapiens) (P08908 whole entry): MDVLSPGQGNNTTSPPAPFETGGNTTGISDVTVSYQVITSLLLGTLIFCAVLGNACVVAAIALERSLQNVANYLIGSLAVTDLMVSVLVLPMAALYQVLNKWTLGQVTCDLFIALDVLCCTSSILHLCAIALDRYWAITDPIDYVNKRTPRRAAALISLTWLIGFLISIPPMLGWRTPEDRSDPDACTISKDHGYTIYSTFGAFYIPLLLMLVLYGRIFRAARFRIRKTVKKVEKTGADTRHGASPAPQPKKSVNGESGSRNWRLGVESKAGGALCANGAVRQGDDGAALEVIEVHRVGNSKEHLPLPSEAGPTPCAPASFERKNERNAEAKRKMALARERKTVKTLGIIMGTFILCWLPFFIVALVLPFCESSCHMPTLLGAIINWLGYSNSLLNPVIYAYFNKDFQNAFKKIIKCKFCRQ

[28] = target: D(1B) dopamine receptor (Homo sapiens) (UniProt P21918); conditions: Compound concentration 10.0 uM
[29] = target: T1, GABA-A receptor; anion channel (Rattus norvegicus) (UniProt O09028+P15431+P18506+P18508+P19969+P20236+P23574+P23576+P28471+P28473+P30191+P62813+P63079+P63138+Q91ZM7+Q9ES14); conditions: Compound concentration 10.0 uM
[30] = target: Transient receptor potential cation channel subfamily M member 8 (Homo sapiens, UniProt Q7Z2W7); test: Assay (coming soon)
[31] = target: Muscarinic acetylcholine receptor M4 (Homo sapiens) (UniProt P08173); conditions: Compound concentration 10.0 uM
Sequence of Muscarinic acetylcholine receptor M4 (Homo sapiens) (P08173 whole entry): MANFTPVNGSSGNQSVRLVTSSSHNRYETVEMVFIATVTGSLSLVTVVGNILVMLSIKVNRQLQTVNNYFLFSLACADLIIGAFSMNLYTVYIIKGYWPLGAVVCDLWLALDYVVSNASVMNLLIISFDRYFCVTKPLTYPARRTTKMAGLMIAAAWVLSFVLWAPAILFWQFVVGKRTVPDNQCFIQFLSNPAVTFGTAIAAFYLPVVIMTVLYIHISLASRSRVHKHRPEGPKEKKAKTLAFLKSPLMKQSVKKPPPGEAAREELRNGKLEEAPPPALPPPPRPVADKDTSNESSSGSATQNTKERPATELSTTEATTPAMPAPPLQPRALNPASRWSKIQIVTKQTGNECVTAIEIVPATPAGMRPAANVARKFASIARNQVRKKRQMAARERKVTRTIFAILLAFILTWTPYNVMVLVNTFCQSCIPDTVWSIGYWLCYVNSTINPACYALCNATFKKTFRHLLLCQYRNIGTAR

[32] = target: Kappa-type opioid receptor (Homo sapiens) (UniProt P41145); conditions: Compound concentration 10.0 uM
Sequence of Kappa-type opioid receptor (Homo sapiens) (P41145 whole entry): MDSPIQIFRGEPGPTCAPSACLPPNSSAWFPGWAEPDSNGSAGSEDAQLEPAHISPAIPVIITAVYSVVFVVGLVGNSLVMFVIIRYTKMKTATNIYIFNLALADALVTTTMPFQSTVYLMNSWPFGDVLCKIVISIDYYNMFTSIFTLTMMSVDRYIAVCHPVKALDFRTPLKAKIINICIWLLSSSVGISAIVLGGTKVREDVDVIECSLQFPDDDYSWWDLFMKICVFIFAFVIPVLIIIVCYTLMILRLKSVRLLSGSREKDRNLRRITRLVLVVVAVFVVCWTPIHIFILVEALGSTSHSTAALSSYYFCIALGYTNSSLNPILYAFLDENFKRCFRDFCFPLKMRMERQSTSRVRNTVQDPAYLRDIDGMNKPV

[33] = target: Alpha-1A adrenergic receptor (Homo sapiens) (UniProt P35348); conditions: Compound concentration 10.0 uM
[34] = target: D(2) dopamine receptor (Homo sapiens) (UniProt P14416); conditions: Compound concentration 10.0 uM
[35] = target: T2, Alpha-2B adrenergic receptor (Homo sapiens) (UniProt P18089); conditions: Compound concentration 10.0 uM
T2 sequence (whole entry): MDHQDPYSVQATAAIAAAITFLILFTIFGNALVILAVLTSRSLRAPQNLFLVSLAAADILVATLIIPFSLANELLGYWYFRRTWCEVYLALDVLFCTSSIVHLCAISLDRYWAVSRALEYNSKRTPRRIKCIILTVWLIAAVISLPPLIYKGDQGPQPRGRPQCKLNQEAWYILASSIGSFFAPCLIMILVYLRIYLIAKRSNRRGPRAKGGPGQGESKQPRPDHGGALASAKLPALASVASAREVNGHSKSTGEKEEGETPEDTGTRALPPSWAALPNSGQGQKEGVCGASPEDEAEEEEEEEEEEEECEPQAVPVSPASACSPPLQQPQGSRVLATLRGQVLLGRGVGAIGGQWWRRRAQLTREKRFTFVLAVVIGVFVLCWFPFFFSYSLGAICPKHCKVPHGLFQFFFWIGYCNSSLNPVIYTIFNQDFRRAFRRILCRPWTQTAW

[36] = target: T1, GABA-A receptor; anion channel (Rattus norvegicus); conditions: Compound concentration 10.0 uM; remark: listed apart in the source
[37] = target: Alpha-1B adrenergic receptor (Homo sapiens) (UniProt P35368); conditions: Compound concentration 10.0 uM

inhibition [1]: 14.9%
inhibition [2]: -9.88%
inhibition [3]: 11.3%
inhibition [4]: 10.1%
inhibition [5]: -3.13%
inhibition [6]: -7.78%
inhibition [7]: 12.4%
inhibition [8]: -2.34%
inhibition [9]: 14.3%
inhibition [10]: 14.2%
inhibition [11]: -1.1%
inhibition [12]: 21.8%
inhibition [13]: -8.13%
inhibition [14]: -2.63%
inhibition [15]: 3.41%
inhibition [16]: -9.65%
inhibition [17]: 1.24%
inhibition [18]: -5.1%
inhibition [19]: 1.77%
inhibition [20]: 24.1%
inhibition [21]: 13.8%
inhibition [22]: 0.07%
inhibition [23]: -0.35%
inhibition [24]: 14.5%
inhibition [25]: 39%
inhibition [26]: -7.94%
inhibition [27]: -3.79%
inhibition [28]: 12.8%
inhibition [29]: 28.3%
IC50 [30]: > 10 µM (not active)
inhibition [31]: 4.42%
inhibition [32]: -0.42%
inhibition [33]: 11.5%
inhibition [34]: -0.95%
inhibition [35]: 17.7%
inhibition [36]: -0.14%
inhibition [37]: -1.36%
Structure (SMILES): C[C@H](c1ccc(F)cc1)N(Cc1ccc(Cl)c(C(=O)O)c1)C(=O)c1cnc2ccccc2c1 [PF-05257137]
